By logP is commonly meant the decadic logarithm of the partition coefficient of the neutral form, usually between octanol and water. A low value points to lower lipophilicity. `CC(C)CN1C(=O)CC2CCC(C)C3CCC4(C)OOC23C1O4` (stereo not given) yielded a lipophilicity (logP) of 3.66.
As for `CC1CCC2CC(=O)N(CCCc3ccccc3)C3OC4(C)CCC1C23OO4` (stereo not given), the figure is 4.39; as for `CC1CCC2CC(=O)N(C)C3OC4(C)CCC1C23OO4` (stereo not given), 2.76.
The compound `CC(C)CCN1C(=O)CC2CCC(C)C3CCC4(C)OOC23C1O4` (stereo not given) showed a logP of 4.16.
As for `CC1CCC2CC(=O)N(Cc3ccc(Cl)cc3)C3OC4(C)CCC1C23OO4` (stereo not given), the log partition coefficient (logP) is 4.32.
`CO[C@H]1O[C@@H]2O[C@@]3(C)CC[C@H]4[C@H](C)CC[C@@H]([C@H]1C)[C@@]24OO3` came in with a log partition coefficient (logP) of 3.53.
Next, `CCCCCN1C(=O)CC2CCC(C)C3CCC4(C)OOC23C1O4` (stereo not given): 4.24; `CC1CCC2CC(=O)N(CC(=O)O)C3OC4(C)CCC1C23OO4` (stereo not given): 1.75; `CCCN1C(=O)CC2CCC(C)C3CCC4(C)OOC23C1O4` (stereo not given): 3.4.
`C[C@@H]1CC[C@H]2[C@@H](C)C(=O)O[C@@H]3O[C@@]4(C)CC[C@@H]1[C@]32OO4` had a logP of 2.9.

These data come from the OPERA property sets (Mansouri et al. 2018).
